Like-named read-outs stand apart in the source and are kept apart here.
Test system: panel of 183 cancer cell lines
Experiment: Cell panel of 183 cancer cell lines, viability (CTG) at Crown Bioscience
Assay type: cell-based
Settings: Homo sapiens
Excerpt: The panel consisted of cell lines with any substitution at position 12 of KRAS, NRAS or HRAS (KRAS(G12X), NRAS(G12X), HRAS(G12X)); substitutions in KRAS, NRAS or HRAS at any position other than 12, 13 and 61 (KRAS(other/VUS), NRAS(other/VUS), HRAS(other/VUS)); other oncogenic mutations in the RAS pathway (ABL1, ALK, ARAF, BRAF, CBL, EGFR, ERBB2, ERBB3, ERBB4, ERRFI1, FGFR1, FGFR2, FGFR3, FGFR4, FLT3, HRAS, IGF1R, JAK2, KIT, MAP2K1, MAP2K2, MAPK1, MET, NF1, NRAS, NTRK1, NTRK2, NTRK3, PDGFRA, PTPN11, RAC1, RAF1, RASA1, RET, RIT1, ROS1 and SOS1); and no oncogenic mutations in the RAS pathway. […] Cells were incubated for 120 h, and cell viability was determined using the CellTiter-Glo Luminescent Cell Viability Assay (CTG) (Promega, G7572) according to the manufacturer’s instructions.

Q: For `CCn1c(-c2cc(N3CCN(C4CC4)CC3)cnc2[C@H](C)OC)c2c3cc(ccc31)-c1csc(n1)C[C@H](NC(=O)[C@H]1[C@@H]3COC[C@@H]31)C(=O)N1CCC[C@H](N1)C(=O)OCC(C)(C)C2` [RMC-7977], which EC50 (786-0, read-out: RMC-7977 EC50 (M), 786O, RAS pathway WT, Kidney) is on record?
A: The EC50 was over 1e-06 M.

Q: What about the EC50 (A 172, read-out: RMC-7977 EC50 (M), A172, RAS pathway WT, Brain&Nerves) of the same compound?
A: The EC50 was 1.19e-07 M.

Q: What about the EC50 (A549, read-out: RMC-7977 EC50 (M), A549, KRAS G12S, Lung) of the same compound?
A: The EC50 was 5.13e-09 M.

Q: And the EC50 (A-375, read-out: RMC-7977 EC50 (M), A375, BRAF V600E, Skin)?
A: The EC50 was over 1e-06 M.

Q: What about the EC50 (A-427, read-out: RMC-7977 EC50 (M), A427, KRAS G12D, Lung) of the same compound?
A: Its EC50 is 4.79e-09 M.

Q: And the EC50 (AN3-CA, read-out: RMC-7977 EC50 (M), AN3CA, RAS pathway WT, Uterus)?
A: The EC50 was 2.87e-08 M.

Q: And the EC50 (ASPC1, read-out: RMC-7977 EC50 (M), ASPC1, KRAS G12D, Pancreas)?
A: The EC50 was 2.63e-09 M.

Q: And the EC50 (AU565, read-out: RMC-7977 EC50 (M), AU565, RAS pathway WT, Breast)?
A: Its EC50 is over 1e-06 M.

Q: And the EC50 (BRAF^MUT Other cell lines, read-out: median EC50)?
A: The EC50 was 7.54e-08 M.

Q: What about the EC50 (BRAF^V600E cell lines, read-out: median EC50) of the same compound?
A: The EC50 was over 1e-06 M.

Q: What about the EC50 (BXPC-3, read-out: RMC-7977 EC50 (M), BXPC3, BRAF mut other, Pancreas) of the same compound?
A: The EC50 was 2.97e-08 M.

Q: And the EC50 (CAL-51, read-out: RMC-7977 EC50 (M), CAL51, NRAS Y137H, Breast)?
A: Its EC50 is 2.88e-08 M.

Q: What about the EC50 (CAL-62, read-out: RMC-7977 EC50 (M), CAL62, KRAS G12R, HN/Thyroid) of the same compound?
A: The EC50 was 2.29e-09 M.

Q: What about the EC50 (CAPAN-1, read-out: G12X (62), RMC-7977 EC50 (CTG), CAPAN1, KRAS G12X) of the same compound?
A: The EC50 was 1.41e-09 M.

Q: What about the EC50 (CAPAN-1, read-out: RMC-7977 EC50 (M), CAPAN1, KRAS G12V, Pancreas) of the same compound?
A: Its EC50 is 1.41e-09 M.

Q: And the EC50 (CFPAC-1, read-out: G12X (62), RMC-7977 EC50 (CTG), CFPAC1, KRAS G12X)?
A: The EC50 was 2.95e-09 M.

Q: And the EC50 (CFPAC-1, read-out: RMC-7977 EC50 (M), CFPAC1, KRAS G12V, Pancreas)?
A: The EC50 was 2.95e-09 M.

Q: What about the EC50 (CHL-1, read-out: RMC-7977 EC50 (M), CHL1, RAS pathway WT, Skin) of the same compound?
A: The EC50 was 2.61e-08 M.

Q: And the EC50 (CHP-212, read-out: RMC-7977 EC50 (M), CHP212, NRAS Q61K, Brain&Nerves)?
A: The EC50 was 1.58e-09 M.

Q: And the EC50 (COLO 201, read-out: RMC-7977 EC50 (M), COLO201, BRAF V600E, Large intestine/Colorectum)?
A: Its EC50 is over 1e-06 M.

Q: And the EC50 (COR-L23, read-out: G12X (62), RMC-7977 EC50 (CTG), CORL23, KRAS G12X)?
A: Its EC50 is 2.75e-09 M.

Q: What about the EC50 (COR-L23, read-out: RMC-7977 EC50 (M), CORL23, KRAS G12V, Lung) of the same compound?
A: Its EC50 is 2.75e-09 M.

Q: What about the EC50 (Calu-1, read-out: RMC-7977 EC50 (M), CALU1, KRAS G12C, Lung) of the same compound?
A: The EC50 was 6.61e-10 M.

Q: What about the EC50 (Calu-6, read-out: RMC-7977 EC50 (M), CALU6, KRAS Q61K, Lung) of the same compound?
A: Its EC50 is 1.86e-09 M.

Q: And the EC50 (Capan-2, read-out: G12X (62), RMC-7977 EC50 (CTG), CAPAN2, KRAS G12X)?
A: The EC50 was 3.31e-10 M.

Q: And the EC50 (Capan-2, read-out: RMC-7977 EC50 (M), CAPAN2, KRAS G12V, Pancreas)?
A: The EC50 was 3.31e-10 M.

Q: And the EC50 (CoC1, read-out: RMC-7977 EC50 (M), COC1, KRAS G12D, Ovary)?
A: The EC50 was 1.58e-09 M.

Q: What about the EC50 (DLD-1, read-out: RMC-7977 EC50 (M), DLD1, KRAS G13D, Large intestine/Colorectum) of the same compound?
A: Its EC50 is 4.57e-08 M.

Q: What about the EC50 (DMS-53, read-out: RMC-7977 EC50 (M), DMS53, RAS pathway WT, Lung) of the same compound?
A: The EC50 was 7.15e-08 M.

Q: And the EC50 (DMS-114, read-out: RMC-7977 EC50 (M), DMS114, RAS pathway WT, Lung)?
A: The EC50 was 7.09e-07 M.

Q: What about the EC50 (DU-145, read-out: RMC-7977 EC50 (M), DU145, RAS pathway WT, Prostate) of the same compound?
A: Its EC50 is 1.72e-08 M.

Q: And the EC50 (DV-90, read-out: RMC-7977 EC50 (M), DV90, KRAS G13D, Lung)?
A: Its EC50 is 2.95e-08 M.

Q: What about the EC50 (EBC-1, read-out: RMC-7977 EC50 (M), EBC1, MET amp, Lung) of the same compound?
A: The EC50 was 1.13e-09 M.

Q: And the EC50 (FTC-133, read-out: RMC-7977 EC50 (M), FTC133, NF1 LOF, HN/Thyroid)?
A: Its EC50 is over 1e-06 M.

Q: What about the EC50 (HCC44, read-out: RMC-7977 EC50 (M), HCC44, KRAS G12C, Lung) of the same compound?
A: Its EC50 is 5.25e-09 M.

Q: What about the EC50 (HCC70, read-out: RMC-7977 EC50 (M), HCC70, RAS pathway WT, Breast) of the same compound?
A: Its EC50 is over 1e-06 M.

Q: And the EC50 (HCC78, read-out: RMC-7977 EC50 (M), HCC78, ROS1 fusion, Lung)?
A: Its EC50 is 7.49e-09 M.

Q: And the EC50 (HCC827, HCC827, RTKMUT/fusion, read-out: EC50)?
A: The EC50 was 3.03e-09 M.

Q: What about the EC50 (HCC827, read-out: RMC-7977 EC50 (M), HCC827, EGFR mut, Lung) of the same compound?
A: The EC50 was 3.03e-09 M.

Q: What about the EC50 (HCC1187, read-out: RMC-7977 EC50 (M), HCC1187, RAS pathway WT, Breast) of the same compound?
A: Its EC50 is 2.7e-07 M.

Q: And the EC50 (HCC1428, read-out: RMC-7977 EC50 (M), HCC1428, RAS pathway WT, Breast)?
A: Its EC50 is over 1e-06 M.

Q: And the EC50 (HCC1500, read-out: RMC-7977 EC50 (M), HCC1500, RAS pathway WT, Breast)?
A: The EC50 was 5.01e-08 M.

Q: What about the EC50 (HCC2279, RTKMUT/fusion, read-out: EC50) of the same compound?
A: Its EC50 is 4.52e-09 M.

Q: And the EC50 (HCC2935, read-out: RMC-7977 EC50 (M), HCC2935, EGFR mut, Lung)?
A: Its EC50 is 2.39e-09 M.

Q: And the EC50 (HCC4006, HCC4006, RTKMUT/fusion, read-out: EC50)?
A: Its EC50 is 2.39e-09 M.

Q: And the EC50 (HCC4006, read-out: RMC-7977 EC50 (M), HCC4006, EGFR mut, Lung)?
A: The EC50 was 2.39e-09 M.

Q: What about the EC50 (HCT-8, read-out: RMC-7977 EC50 (M), HCT8, KRAS G13D, Large intestine/Colorectum) of the same compound?
A: The EC50 was 3.02e-08 M.

Q: And the EC50 (HCT-15, read-out: RMC-7977 EC50 (M), HCT15, KRAS G13D, Large intestine/Colorectum)?
A: The EC50 was 2.75e-07 M.

Q: And the EC50 (HCT-116, read-out: RMC-7977 EC50 (M), HCT116, KRAS G13D, Large intestine/Colorectum)?
A: Its EC50 is 6.61e-09 M.

Q: And the EC50 (HEC-1-A, read-out: RMC-7977 EC50 (M), HEC1A, KRAS G12D, Uterus)?
A: Its EC50 is 1.74e-09 M.

Q: What about the EC50 (HGC-27, read-out: RMC-7977 EC50 (M), HGC27, NF1 LOF, Stomach) of the same compound?
A: Its EC50 is over 1e-06 M.

Q: What about the EC50 (HPAC, read-out: RMC-7977 EC50 (M), HPAC, KRAS G12D, Pancreas) of the same compound?
A: Its EC50 is 1.1e-08 M.

Q: What about the EC50 (HPAF-II, read-out: RMC-7977 EC50 (M), HPAFII, KRAS G12D, Pancreas) of the same compound?
A: Its EC50 is 3.24e-09 M.

Q: What about the EC50 (HT-1080, read-out: RMC-7977 EC50 (M), HT1080, NRAS Q61K, Soft tissue) of the same compound?
A: The EC50 was 2.34e-09 M.

Q: What about the EC50 (HepG2, read-out: RMC-7977 EC50 (M), HEPG2, NRAS Q61L, Liver) of the same compound?
A: Its EC50 is 6.76e-09 M.

Q: What about the EC50 (Hs766T, read-out: RMC-7977 EC50 (M), HS766T, KRAS Q61H, Pancreas) of the same compound?
A: The EC50 was over 1e-06 M.

Q: What about the EC50 (Hs-578T, read-out: RMC-7977 EC50 (M), HS578T, HRAS G12D, Breast) of the same compound?
A: Its EC50 is 1.45e-08 M.

Q: And the EC50 (HuCCT-1, read-out: RMC-7977 EC50 (M), HUCCT1, KRAS G12D, Liver/Bile duct)?
A: The EC50 was 5.13e-09 M.

Q: And the EC50 (HuP-T4, read-out: RMC-7977 EC50 (M), HUPT4, KRAS G12V, Pancreas)?
A: The EC50 was 2.51e-09 M.

Q: And the EC50 (JHH7, read-out: RMC-7977 EC50 (M), JHH7, RAS pathway WT, Liver)?
A: The EC50 was 8.08e-08 M.

— publication PMC11111408, “Concurrent inhibition of oncogenic and wild-type RAS-GTP for cancer therapy” (Nature, 2024)
